Measurements: publication PMC5447021, “TNF Lectin-Like Domain Restores Epithelial Sodium Channel Function in Frameshift Mutants Associated with Pseudohypoaldosteronism Type 1B” (Frontiers in Immunology, 2017)

Columns and labels:
[1] = biological target: T1, αβγ-hENaC (Homo sapiens, UniProt P37088+P51168+P51170); assay: Whole-cell patch clamp, WT αβγ-hENaC; format: cell-based; conditions: exposure time, WT αβγ-ENaC (Figure 1)
T1 construct: expressed in transfected cells; host or cells: HEK-293
T1 sequence (P37088 1-669): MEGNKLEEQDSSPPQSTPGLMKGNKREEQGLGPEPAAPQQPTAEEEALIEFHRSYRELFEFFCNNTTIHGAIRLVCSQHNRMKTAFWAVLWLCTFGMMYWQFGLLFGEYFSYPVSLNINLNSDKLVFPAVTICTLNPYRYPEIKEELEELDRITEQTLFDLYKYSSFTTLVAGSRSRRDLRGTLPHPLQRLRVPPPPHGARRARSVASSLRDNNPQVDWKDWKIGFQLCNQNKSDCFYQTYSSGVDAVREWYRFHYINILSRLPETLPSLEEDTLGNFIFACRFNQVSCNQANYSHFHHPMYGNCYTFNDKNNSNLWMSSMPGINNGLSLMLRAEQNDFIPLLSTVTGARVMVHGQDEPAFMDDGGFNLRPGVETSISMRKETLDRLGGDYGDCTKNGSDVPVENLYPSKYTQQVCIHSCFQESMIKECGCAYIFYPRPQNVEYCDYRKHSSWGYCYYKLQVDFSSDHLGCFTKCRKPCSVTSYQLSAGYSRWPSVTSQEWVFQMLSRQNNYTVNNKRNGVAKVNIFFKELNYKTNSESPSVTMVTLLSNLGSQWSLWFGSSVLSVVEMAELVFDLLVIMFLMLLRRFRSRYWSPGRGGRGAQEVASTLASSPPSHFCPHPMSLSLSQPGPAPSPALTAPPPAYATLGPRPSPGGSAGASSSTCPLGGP
T1 sequence (P51168 1-640 partner): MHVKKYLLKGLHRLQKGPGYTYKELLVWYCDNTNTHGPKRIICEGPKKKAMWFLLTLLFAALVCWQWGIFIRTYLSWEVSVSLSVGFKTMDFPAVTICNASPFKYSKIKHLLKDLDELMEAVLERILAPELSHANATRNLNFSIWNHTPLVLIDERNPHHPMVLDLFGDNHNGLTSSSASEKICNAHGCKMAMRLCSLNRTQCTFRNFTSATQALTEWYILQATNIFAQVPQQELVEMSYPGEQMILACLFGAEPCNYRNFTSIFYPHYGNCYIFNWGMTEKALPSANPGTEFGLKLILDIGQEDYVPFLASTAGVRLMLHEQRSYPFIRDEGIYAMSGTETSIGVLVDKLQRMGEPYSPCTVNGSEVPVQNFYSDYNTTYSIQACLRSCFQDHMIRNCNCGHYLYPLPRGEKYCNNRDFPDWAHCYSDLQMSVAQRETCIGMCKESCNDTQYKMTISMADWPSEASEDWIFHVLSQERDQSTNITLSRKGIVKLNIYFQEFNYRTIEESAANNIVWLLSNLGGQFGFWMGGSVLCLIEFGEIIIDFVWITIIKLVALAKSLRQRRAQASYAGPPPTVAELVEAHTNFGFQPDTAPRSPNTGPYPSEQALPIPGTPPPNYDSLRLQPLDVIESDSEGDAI
T1 sequence (P51170 1-649 partner): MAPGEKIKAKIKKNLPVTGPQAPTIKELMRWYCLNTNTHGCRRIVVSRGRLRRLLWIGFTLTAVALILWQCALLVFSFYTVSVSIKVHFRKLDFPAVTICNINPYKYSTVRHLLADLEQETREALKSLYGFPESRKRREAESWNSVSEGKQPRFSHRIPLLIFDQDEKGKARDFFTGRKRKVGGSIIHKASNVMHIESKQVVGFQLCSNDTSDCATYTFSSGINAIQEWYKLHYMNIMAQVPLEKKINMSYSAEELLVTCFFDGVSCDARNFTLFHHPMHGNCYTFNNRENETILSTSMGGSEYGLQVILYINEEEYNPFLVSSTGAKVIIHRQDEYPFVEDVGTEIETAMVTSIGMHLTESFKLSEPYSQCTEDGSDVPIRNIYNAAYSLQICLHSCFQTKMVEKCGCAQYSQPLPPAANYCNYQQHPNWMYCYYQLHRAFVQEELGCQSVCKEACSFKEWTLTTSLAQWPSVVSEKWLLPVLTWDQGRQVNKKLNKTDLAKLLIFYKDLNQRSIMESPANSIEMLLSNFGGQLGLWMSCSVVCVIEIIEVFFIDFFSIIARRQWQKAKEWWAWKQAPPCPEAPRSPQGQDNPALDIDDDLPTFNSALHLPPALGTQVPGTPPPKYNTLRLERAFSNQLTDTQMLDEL
Procedure: Point mutations of α-, β-, γ- and δ-hENaC and PHA1B frameshift mutations of α-hENaC were prepared with the QuikChange Lightning Site-Directed Mutagenesis Kit (Agilent Technologies, CA, USA). Mutagenic primers were designed individually with the Primer Design Program provided on the producer’s website or for the frameshift mutations the same base changes as reported in patients (see Table 2) were performed. Primers were ordered from Sigma-Aldrich, Vienna, Austria.
HEK-293 cells were transfected 1 day after cell seeding using X-tremeGENE HP DNA transfection reagent (Roche Diagnostics, Mannheim, Germany) according to the manufacturer’s protocol. A set of WT or mutant αβγ- or δβγ-hENaC, or α-, β-, γ-, or δ-hENaC alone was used, and the ratio of DNA to transfection reagent was 1:3. The expression was highest 48–72 h after transfection.
Electrophysiological experiments were performed as described in detail by Shabbir et al. ([16]). […] Currents were recorded with the patch clamp method in the whole-cell mode. The chamber contained 1 ml of the bath solution of the following composition (in mM): 145 NaCl, 2.7 KCl, 1.8 CaCl2, 2 MgCl2, 5.5 glucose, and 10 HEPES, adjusted to pH 7.4 with 1 M NaOH solution. Micropipettes were pulled from thin-walled borosilicate glass capillaries (Harvard Apparatus, Holliston, MA, USA) with a DMZ Zeitz Puller to obtain electrode resistances ranging from 2 to 5 MΩ. The pipette solution contained (in millimolars): 135 potassium methane sulfonate, 10 KCl, 6 NaCl, 1 Mg2ATP, 2 Na3ATP, 10 HEPES, and 0.5 EGTA, adjusted to pH 7.2 with 1 M KOH solution. Chemicals for pipette and bathing solutions were supplied by Sigma-Aldrich (Vienna, Austria). Electrophysiological measurements were carried out with an Axopatch 200B patch clamp amplifier (Axon Instruments, CA, USA). Capacity transients were canceled, and series resistance was compensated. Whole-cell currents were filtered at 5 kHz and sampled at 10 kHz. Data acquisition and storage were processed directly to a PC equipped with pCLAMP 10.2 software (Axon Instruments, CA, USA). […]

[2] = system: rat lung transplantation; conditions: instilled intratracheally into rats prior to lung transplantation; cited from earlier work
Excerpt: Like TNF, TIP peptide can influence regulation of alveolar fluid balance.

C[C@@H]1NC(=O)CNC(=O)[C@H](CCC(=O)O)NC(=O)[C@@H]2CCCN2C(=O)[C@H]([C@@H](C)O)NC(=O)[C@H](CCC(=O)O)NC(=O)[C@H](CCCNC(=N)N)NC(=O)[C@H](CCC(N)=O)NC(=O)CNC(=O)[C@@H](N)CSSC[C@@H](C(=O)O)NC(=O)[C@H](Cc2ccc(O)cc2)NC(=O)[C@H](Cc2c[nH]c3ccccc23)NC(=O)[C@@H]2CCCN2C(=O)[C@H](CCCCN)NC(=O)[C@H](C)NC(=O)[C@H](CCC(=O)O)NC1=O [solnatide, L-cysteine, L-cysteinylglycyl-L-glutaminyl-L-arginyl-L-α-glutamyl-L-threonyl-L-prolyl-L-α-glutamylglycyl-L-alanyl-L-α-glutamyl-L-alanyl-L-lysyl-L-prolyl-L-tryptophyl-L-tyrosyl-, cyclic (1→17)-disulfide]
Time to maximal stimulatory effect [1]: ~ 2 min | Lung function [2]: significantly improved lung function
